Source: PubChem BioAssay (NCI)
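1) Cells in 96-well plates. 2) Compound, 48 h, 5 concentrations. 3) Linear interpolation between surrounding doses. 4) Unreached endpoint = highest concentration. GI50 marks 50% less growth. At the TGI there is no net growth.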

Experiments:
Assay in all cases: inhibition of tumour cell growth, NCI panel, 48 h
SF-539 CNS = tested on: SF-539 CNS
SK-MEL-2 melanoma = tested on: SK-MEL-2 melanoma
DU-145 prostate = tested on: DU-145 prostate
SR leukemia = tested on: SR leukemia
MDA-MB-231 breast = tested on: MDA-MB-231 breast
A549 NSCLC = tested on: A549 NSCLC
HL-60(TB) leukemia = tested on: HL-60(TB) leukemia
NCI/ADR-RES ovarian = tested on: NCI/ADR-RES ovarian
786-0 renal = tested on: 786-0 renal
HT29 colon = tested on: HT29 colon
NCI-H23 lung = tested on: NCI-H23 lung
IGROV1 ovarian = tested on: IGROV1 ovarian
EKVX NSCLC = tested on: EKVX NSCLC
PC-3 prostate = tested on: PC-3 prostate
NCI-H226 lung = tested on: NCI-H226 lung
SW-620 colon = tested on: SW-620 colon
HOP-92 NSCLC = tested on: HOP-92 NSCLC
TK-10 renal = tested on: TK-10 renal
KM12 colon = tested on: KM12 colon
T-47D breast = tested on: T-47D breast
RPMI-8226 leukemia = tested on: RPMI-8226 leukemia
HCT-116 colon = tested on: HCT-116 colon
MDA-MB-435 = tested on: MDA-MB-435
A498 renal = tested on: A498 renal
SNB-75 CNS = tested on: SNB-75 CNS
RXF 393 renal = tested on: RXF 393 renal
BT-549 breast = tested on: BT-549 breast
SN12C renal = tested on: SN12C renal
CAKI-1 renal = tested on: CAKI-1 renal
UACC-62 melanoma = tested on: UACC-62 melanoma
NCI-H460 lung = tested on: NCI-H460 lung
SK-MEL-5 melanoma = tested on: SK-MEL-5 melanoma
HS 578T breast = tested on: HS 578T breast
SK-OV-3 ovarian = tested on: SK-OV-3 ovarian
OVCAR-4 ovarian = tested on: OVCAR-4 ovarian
LOX IMVI melanoma = tested on: LOX IMVI melanoma
UACC-257 melanoma = tested on: UACC-257 melanoma
MALME-3M melanoma = tested on: MALME-3M melanoma
NCI-H522 lung = tested on: NCI-H522 lung
SF-268 CNS = tested on: SF-268 CNS
COLO 205 colon = tested on: COLO 205 colon
SNB-19 CNS = tested on: SNB-19 CNS
SF-295 CNS = tested on: SF-295 CNS
OVCAR-5 ovarian = tested on: OVCAR-5 ovarian
ACHN renal = tested on: ACHN renal
HCT-15 colon = tested on: HCT-15 colon
OVCAR-8 ovarian = tested on: OVCAR-8 ovarian
M14 melanoma = tested on: M14 melanoma
HCC-2998 colon = tested on: HCC-2998 colon
SK-MEL-28 melanoma = tested on: SK-MEL-28 melanoma
CCRF-CEM leukemia = tested on: CCRF-CEM leukemia
MOLT-4 leukemia = tested on: MOLT-4 leukemia
HOP-62 NSCLC = tested on: HOP-62 NSCLC
UO-31 renal = tested on: UO-31 renal
U251 CNS = tested on: U251 CNS

CCOc1ccccc1NC1=C(Cl)C(=O)c2nc(C)ccc2C1=O
GI50 (SF-539 CNS): 1670 nM
TGI (SF-539 CNS): 3090 nM
GI50 (SK-MEL-2 melanoma): 1440 nM
TGI (SK-MEL-2 melanoma): 2860 nM
GI50 (DU-145 prostate): 1630 nM
TGI (DU-145 prostate): 2990 nM
GI50 (SR leukemia): 543 nM
TGI (SR leukemia): 4140 nM
GI50 (MDA-MB-231 breast): 1070 nM
TGI (MDA-MB-231 breast): 2380 nM
GI50 (A549 NSCLC): 2060 nM
TGI (A549 NSCLC): 4650 nM
GI50 (HL-60(TB) leukemia): 1030 nM
TGI (HL-60(TB) leukemia): 2920 nM
GI50 (NCI/ADR-RES ovarian): 1890 nM
TGI (NCI/ADR-RES ovarian): 5090 nM
GI50 (786-0 renal): 1800 nM
TGI (786-0 renal): 3250 nM
GI50 (HT29 colon): 3400 nM
TGI (HT29 colon): 15200 nM
GI50 (NCI-H23 lung): 1440 nM
TGI (NCI-H23 lung): 3550 nM
GI50 (IGROV1 ovarian): 1370 nM
TGI (IGROV1 ovarian): 2820 nM
GI50 (EKVX NSCLC): 1560 nM
TGI (EKVX NSCLC): 2980 nM
GI50 (PC-3 prostate): 1260 nM
TGI (PC-3 prostate): 2770 nM
GI50 (NCI-H226 lung): 1780 nM
TGI (NCI-H226 lung): 4240 nM
GI50 (SW-620 colon): 1600 nM
TGI (SW-620 colon): 3210 nM
GI50 (HOP-92 NSCLC): 1800 nM
TGI (HOP-92 NSCLC): 3330 nM
GI50 (TK-10 renal): 2250 nM
TGI (TK-10 renal): 3720 nM
GI50 (KM12 colon): 1410 nM
TGI (KM12 colon): 2890 nM
GI50 (T-47D breast): 467 nM
TGI (T-47D breast): 3170 nM
GI50 (RPMI-8226 leukemia): 1200 nM
TGI (RPMI-8226 leukemia): 4710 nM
GI50 (HCT-116 colon): 1050 nM
TGI (HCT-116 colon): 2310 nM
GI50 (MDA-MB-435): 266 nM
TGI (MDA-MB-435): 671 nM
GI50 (A498 renal): 2650 nM
TGI (A498 renal): 10800 nM
GI50 (SNB-75 CNS): 1630 nM
TGI (SNB-75 CNS): 3430 nM
GI50 (RXF 393 renal): 1440 nM
TGI (RXF 393 renal): 2780 nM
GI50 (BT-549 breast): 1520 nM
TGI (BT-549 breast): 2880 nM
GI50 (SN12C renal): 1590 nM
TGI (SN12C renal): 3040 nM
GI50 (CAKI-1 renal): 1450 nM
TGI (CAKI-1 renal): 2840 nM
GI50 (UACC-62 melanoma): 1800 nM
TGI (UACC-62 melanoma): 3360 nM
GI50 (NCI-H460 lung): 3020 nM
TGI (NCI-H460 lung): 11400 nM
GI50 (SK-MEL-5 melanoma): 1740 nM
TGI (SK-MEL-5 melanoma): 3130 nM
GI50 (HS 578T breast): 2110 nM
TGI (HS 578T breast): 5250 nM
GI50 (SK-OV-3 ovarian): 13500 nM
TGI (SK-OV-3 ovarian): 27100 nM
GI50 (OVCAR-4 ovarian): 1000 nM
TGI (OVCAR-4 ovarian): 2220 nM
GI50 (LOX IMVI melanoma): 839 nM
TGI (LOX IMVI melanoma): 2220 nM
GI50 (UACC-257 melanoma): 1280 nM
TGI (UACC-257 melanoma): 2610 nM
GI50 (MALME-3M melanoma): 1360 nM
TGI (MALME-3M melanoma): 2770 nM
GI50 (NCI-H522 lung): 1740 nM
TGI (NCI-H522 lung): 3280 nM
GI50 (SF-268 CNS): 1470 nM
TGI (SF-268 CNS): 2940 nM
GI50 (COLO 205 colon): 1730 nM
TGI (COLO 205 colon): 3660 nM
GI50 (SNB-19 CNS): 1800 nM
TGI (SNB-19 CNS): 3970 nM
GI50 (SF-295 CNS): 2030 nM
TGI (SF-295 CNS): 4200 nM
GI50 (OVCAR-5 ovarian): 1840 nM
TGI (OVCAR-5 ovarian): 3330 nM
GI50 (ACHN renal): 1350 nM
TGI (ACHN renal): 2690 nM
GI50 (HCT-15 colon): 1130 nM
TGI (HCT-15 colon): 2550 nM
GI50 (OVCAR-8 ovarian): 1490 nM
TGI (OVCAR-8 ovarian): 2920 nM
GI50 (M14 melanoma): 1460 nM
TGI (M14 melanoma): 2830 nM
GI50 (HCC-2998 colon): 1940 nM
TGI (HCC-2998 colon): 3520 nM
GI50 (SK-MEL-28 melanoma): 1710 nM
TGI (SK-MEL-28 melanoma): 3140 nM
GI50 (CCRF-CEM leukemia): 1410 nM
TGI (CCRF-CEM leukemia): > 100000 nM
GI50 (MOLT-4 leukemia): 2030 nM
TGI (MOLT-4 leukemia): 8090 nM
GI50 (HOP-62 NSCLC): 2270 nM
TGI (HOP-62 NSCLC): 6740 nM
GI50 (UO-31 renal): 1400 nM
TGI (UO-31 renal): 2710 nM
GI50 (U251 CNS): 1700 nM
TGI (U251 CNS): 3270 nM
